Experiments:
[1] = tested on: breast cancer cell line MX-1; assay: MX-1 cell line proliferation assay; format: cell-based; conditions: Homo sapiens, MX1; MX-1 cells, 3-day (72 h) proliferation, Cell Titer Glo; read-out: Cellular proliferation: EC50
Description: MX-1 Cell Line Proliferation Assay
The impact of compounds of the Examples on cancer cell proliferation was determined using the breast cancer cell line MX-1 (ATCC) in a 3-day proliferation assay and the data are reported in Table 1. MX-1 cells were maintained in RPMI 1640 medium (Sigma) supplemented with 10% FBS at 37 C.° and an atmosphere of 5% CO2. For compound testing, MX-1 cells were plated in 96-well black bottom plates at a density of 5000 cells/well in 90 μL of culture media and incubated at 37° overnight to allow cell adhesion and spreading. Compound dilution series were prepared in DMSO via a 3-fold serial dilution from 3 mM to 0.1 μM. The DMSO dilution series were then diluted 1:100 in phosphate buffered saline, and 10 μL of the resulted solution were added to the appropriate wells of the MX-1 cell plate. The final compound concentrations in the wells were 3, 1, 0.3, 0.1, 0.03, 0.01, 0.003, 0.001, 0.0003 and 0.0001 μM.
Luminescence readings from the Cell Titer Glo assay were normalized to the DMSO treated cells and analyzed using the GraphPad Prism software with sigmoidal curve fitting to obtain EC50s. The minimum significant ratio (MSR) was determined to evaluate assay reproducibility (Eastwood et al., (2006) J Biomol Screen, 11: 253-261). The overall MSR was determined to be 2.1 and a moving MSR (last six run MSR overtime) has been <2.

BRD4 (BDI_K57-E168) = target: T1, BRD4 (BDI_K57-E168) (Homo sapiens, UniProt O60885); assay: TR-FRET bromodomain binding assay, BRD4 first bromodomain; conditions: His-tagged BD1, 100 nM Alexa647 probe; assay protocol D or F as given per row in c1; Ki calculated from IC50
T1 construct: BD1: amino acids K57-E168; made in house
Description: (§1) A time-resolved fluorescence resonance energy transfer (TR-FRET) assay was used to determine the affinities of compounds of the Examples listed in Table 1 for each bromodomain of BRD4. His-tagged first (BD1: amino acids K57-E168) and second (BD2: amino acids E352-E168) bromodomains of BRD4 were expressed and purified. An Alexa647-labeled BET-inhibitor was used as the fluorescent probe in the assay.
(§2) Compound dilution series were prepared in DMSO via an approximately 3-fold serial dilution from one of the following:
(§3) Assay method D: 500 μM-8.5 nM
(§4) Assay method E: 0.47 mM to 7.8 nM
(§5) Assay method F: 250 μM-4.2 nM
(§6) Assay method G: 0.047 mM to 0.78 nM
(§7) or 5-fold serial dilution from one of the following:
(§8) Assay method A: 2.5 mM-800 nM
(§9) Assay method B: 2.5 mM-797 nM
(§10) For Assay methods A, C, D, and F: Compounds were then diluted 6:100 in assay buffer (20 mM Sodium Phosphate, pH 6.0, 50 mM NaCl, 1 mM Ethylenediaminetetraacetic acid, 0.01% Triton X-100, 1 mM DL-Dithiothreitol) to yield 3× working solutions. Six microliters (μL) of the working solution was then transferred to white, low-volume assay plates (Costar #3673). A 1.5× assay mixture containing His-tagged bromodomain, Europium-conjugated anti-His antibody (Invitrogen PV5596) and the Alexa-647-conjugated probe molecule was also prepared. Twelve μL of this solution were added to the assay plate to reach a final volume of 18 μL.
(§11) For Assay methods B, E, and G: Compound dilutions were added directly into white, low-volume assay plates (Perkin Elmer Proxiplate 384 Plus#6008280) using a Labcyte Echo in conjunction with Labcyte Access and Thermo Multidrop CombinL robotics. Compounds were then suspended in eight microliters (μL) of assay buffer (20 mM Sodium Phosphate, pH 6.0, 50 mM NaCl, 1 mM Ethylenediaminetetraacetic acid disodium salt dihydrate, 0.01% Triton X-100, 1 mM DL-Dithiothreitol) containing His-tagged bromodomain, Europium-conjugated anti-His antibody (Invitrogen PV5596) and Alexa-647-conjugated probe.
(§12) The final concentration of 1× assay mixture for assay methods A, B, C, D, E, F, and G contains 2% DMSO, 8 nM His-tagged bromodomain, 1 nM Europium-conjugated anti-His-tag antibody and 100 nM or 30 nM probe (for BDI or BDII, respectively) and compound concentration in the range of: 50 μM-16 nM for method A, 49.02 μM-15.63 nM for method B, 25 μM-423 pM for method C, 10 μM-169 pM for method D, 9.19 μM 150 pM for method E, 5 μM-85 pM for method F, and 0.92 μM-15 pM for method G.
(§13) After a one-hour equilibration at room temperature, TR-FRET ratios were determined using an Envision multilabel plate reader (Ex 340, Em 495/520).
(§14) TR-FRET data were normalized to the means of 24 no-compound controls (“high”) and 8 controls containing 1 μM un-labeled probe (“low”). Percent inhibition was plotted as a function of compound concentration and the data were fit with the 4 parameter logistic equation to obtain IC50s Inhibition constants (Ki) were calculated from the IC50s, probe Kd and probe concentration. Typical Z′ values were between 0.65 and 0.75. The minimum significant ratio was determined to evaluate assay reproducibility (Eastwood et al., (2006) J Biomol Screen, 11: 253-261). The MSR was determined to be 2.03 for BDI and 1.93 for BDII, and a moving MSR (last six run MSR overtime) for both BDI and BDII was typically <3.

BRD4 (BDII_E352-M457) = target: T2, BRD4 (BDII_E352-M457) (Homo sapiens, UniProt O60885); assay: TR-FRET bromodomain binding assay, BRD4 second bromodomain
T2 construct: protocol; made in house
Description: as §1, §2, §3, §4, §5, §6, §7, §8, §9, §10, §11, §12, §13, §14

Structure (SMILES) | EC50 [1] [nM] | Ki (BRD4 (BDI_K57-E168)) [nM] | Ki (BRD4 (BDII_E352-M457)) [nM]
Cn1cc2c3c(c[nH]c(=O)c31)CN(C(=O)C1CC1)c1ccc(CS(C)(=O)=O)cc1-2 [Example 6] | 16.4 | 3.53 | 2.44
Cn1cc2c3c(c[nH]c(=O)c31)CN(c1ccc(F)cc1F)c1c-2cc(CS(C)(=O)=O)cc1C1CC1 [Example 78] | 6.28 | 1.29 | 0.85
Cc1ccc(F)cc1CNC(=O)c1ccc2c(c1)-c1cn(C)c3c(=O)[nH]cc(c13)CN2c1ccc(F)cc1 [Example 57] | 54.9 | 1.72 | 29
Cc1cnc(C(=O)Nc2ccc3c(c2)-c2cn(C)c4c(=O)[nH]cc(c24)CN3c2ccc(F)cc2)cn1 [Example 35] | 26.4 | 2.01 | 18.9
CN1CCN(CCC(=O)Nc2ccc3c(c2)-c2cn(C)c4c(=O)[nH]cc(c24)CN3c2ccc(F)cc2)CC1 [Example 47] | 14.3 | 1.14 | 13.3
Cn1cc2c3c(c[nH]c(=O)c31)CN(c1ccc(F)cc1)c1ccc(NC(=O)Cc3cc(F)ccc3Br)cc1-2 [Example 49] | 65.1 | 2.74 | 29.8
Cc1cccnc1CNc1ccc2c(c1)-c1cn(C)c3c(=O)[nH]cc(c13)CN2c1ccc(F)cc1 [Example 43] | 17.3 | 1.25 | 6.49
CC(=O)Nc1ccc(S(=O)(=O)Nc2ccc3c(c2)-c2cn(C)c4c(=O)[nH]cc(c24)CN3c2ccc(F)cc2)cc1 [Example 27] | 8.56 | 0.2 | 1.73
Cc1cccc(CNc2ccc3c(c2)-c2cn(C)c4c(=O)[nH]cc(c24)CN3c2ccc(F)cc2)n1 [Example 40] | 25.5 | 0.86 | 7.27
Cn1cc2c3c(c[nH]c(=O)c31)CN(C1CCN(C(=O)OC(C)(C)C)CC1)c1ccc(CS(C)(=O)=O)cc1-2 [Example 80] | 106 | 3.04 | 14.5
Cn1cc2c3c(c[nH]c(=O)c31)C(c1ccccc1)Nc1ccc(CS(C)(=O)=O)cc1-2 (stereo not drawn) [Example 25] | > 1000 | 192 | 124
Cn1cc2c3c(c[nH]c(=O)c31)CN(CC1CC1)c1ccc(S(C)(=O)=O)cc1-2 [Example 2] | 144 | 21 | 430
COC(=O)N1Cc2c[nH]c(=O)c3c2c(cn3C)-c2cc(CS(C)(=O)=O)ccc21 [Example 81] | 77.9 | 4.97 | 11.1
Cn1cc(CC(=O)Nc2ccc3c(c2)-c2cn(C)c4c(=O)[nH]cc(c24)CN3c2ccc(F)cc2)cn1 [Example 28] | 13.5 | 1.17 | 8.21
Cn1cc2c3c(c[nH]c(=O)c31)CN(c1ccc(F)cc1)c1ncc(NC(=O)Cn3ccc(-c4ccccc4F)n3)cc1-2 [Example 19] | 68.7 | 1.32 | 11.6
COC(=O)CCCNc1ccc2c(c1)-c1cn(C)c3c(=O)[nH]cc(c13)CN2c1ccc(F)cc1 [Example 41] | 55.6 | 1.73 | 12.5
Cc1cc(CC(=O)Nc2ccc3c(c2)-c2cn(C)c4c(=O)[nH]cc(c24)CN3c2ccc(F)cc2)nn1C [Example 33] | 17.4 | 1.49 | 6.39

Structure (SMILES) | EC50 [1] [nM] | Ki (BRD4 (BDI_K57-E168)) [nM] | Ki (BRD4 (BDII_E352-M457)) [nM]
CCS(=O)(=O)Nc1ccc2c(c1)-c1cn(C)c3c(=O)[nH]cc(c13)CN2C1CCN(C(C)=O)CC1 [Example 74] | > 1000 | 3.61 | 17
Cn1cc2c3c(c[nH]c(=O)c31)CN(c1ccc(F)cc1)c1ccc(NC(=O)CCCC(=O)Nc3ccccc3)cc1-2 [Example 34] | 47.9 | 2.2 | 24.9
Cn1cncc1CNc1ccc2c(c1)-c1cn(C)c3c(=O)[nH]cc(c13)CN2c1ccc(F)cc1 [Example 42] | 9.83 | 2.07 | 13.4
Cn1cc2c3c(c[nH]c(=O)c31)CN(c1ccc(F)cc1)c1ccc(NC(=O)CCN3CCCCC3)cc1-2 [Example 48] | 29.5 | 2.39 | 19.5
Cn1cc2c3c(c[nH]c(=O)c31)CN(CC1CC1)c1ccccc1-2 [Example 11] | 56.8 | 7.14 | 18.9
CCS(=O)(=O)Nc1cnc2c(c1)-c1cn(C)c3c(=O)[nH]cc(c13)CN2c1ccc(F)cc1F [Example 68] | 17.5 | 1.26 | 1.79
CCn1ccc(CNc2ccc3c(c2)-c2cn(C)c4c(=O)[nH]cc(c24)CN3c2ccc(F)cc2)n1 [Example 37] | 19 | 1.07 | 7.42
Cn1cc2c3c(c[nH]c(=O)c31)CN(c1ccc(F)cc1)c1ccc(NC(=O)Nc3cccc(Oc4ccccc4)c3)cc1-2 [Example 44] | > 1000 | 53.3 | > 408
CC(=O)N1CCC(N2Cc3c[nH]c(=O)c4c3c(cn4C)-c3cc(NC(=O)Cc4cnc(C)s4)ccc32)CC1 [Example 75] | > 1000 | 2.54 | 54.6
Cc1ncc(CC(=O)Nc2ccc3c(c2)-c2cn(C)c4c(=O)[nH]cc(c24)CN3c2ccc(F)cc2)s1 [Example 32] | 12.3 | 1.37 | 11.6
Cn1cc2c3c(c[nH]c(=O)c31)CN(c1ccc(Cl)cc1)c1ncc(NS(C)(=O)=O)cc1-2 [Example 71] | 35.6 | 1.65 | 2.21
Cn1cc2c3c(c[nH]c(=O)c31)CN(c1ccc(Cl)cc1)c1ncc(N)cc1-2 [Example 69] | 4.4 | 0.78 | 1.89
Cn1cc2c3c(c[nH]c(=O)c31)CN(C(=O)c1ccccc1)c1ccc(CS(C)(=O)=O)cc1-2 [Example 7] | 273 | 59.1 | 97.5
CC(=O)N1CCC(N2Cc3c[nH]c(=O)c4c3c(cn4C)-c3cc(NC(=O)Cc4cc(F)ccc4Cl)ccc32)CC1 [Example 76] | 332 | 3.46 | 17.5
Cn1cc2c3c(c[nH]c(=O)c31)CN(c1ccc(F)cc1)c1ncc(N)cc1-2 [Example 14] | 2.78 | 3 | 3.69
Cn1cc2c3c(c[nH]c(=O)c31)CN(c1ccc(F)cc1)c1ccc(NS(=O)(=O)c3ccccc3)cc1-2 [Example 26] | 9.48 | 0.27 | 3.12
Cc1cc(CC(=O)Nc2cnc3c(c2)-c2cn(C)c4c(=O)[nH]cc(c24)CN3c2ccc(F)cc2)nn1C [Example 18] | 7.02 | 1.82 | 3.46

From patent US8980879B2 (AbbVie Inc., priority 2013, dated 2015)
